Nine molecules from US20230016424A1, “HYBRID AMIDE DERIVATIVES OF AMPHOTERICIN B” (The Board of Trustees of the University of Illinois, priority 2019, published 2023) can be followed below.

One series relates to C. tropicalis. As to the kind of experiment: MIC. It is filed as cell-based.
A further series relates to A. fumigatus 1163. As to the kind of experiment: MIC. It counts as cell-based.
The test system of series [1] is C. albicans SN250, C. albicans, C. krusei, C. glabrata, C. tropicalis, A. fumigatus 91, 1163, 1100. The series can be described thus: Average MIC over the tested strains. It counts as cell-based. Set-up: Avg. MIC of AmB amide: unit not given here. The following applies: for Avg. MIC of AmB amide: value of the corresponding C16 amide of AmB, not of the C2’epi compound.

The next series has as its system C. albicans SN250. The series can be described thus: MIC. It is filed as cell-based, Candida albicans.
The next series relates to C. krusei. The series can be described thus: MIC. It counts as cell-based.
Another series has as its system C. glabrata. The series can be described thus: MIC. It is filed as cell-based.
A further series concerns A. fumigatus 1100. The series can be described thus: MIC. It is filed as cell-based.
The nature of a further series: Plasma Stability. It is filed as in vitro ADME. The protocol: Plasma Stability: Procedure: […] Plasma was warmed to 37° C. prior to the experiment and centrifuged for 5 mins at 4000 rpm. […] Each time point was monitored in triplicate (0, 10, 30, 60 and 120 min). 4 uL/well aliquot of the working solution was mixed to the blank plasma and incubated at 37° C. AT each time point samples were quenched with ACN stop solution containing 200 ng/ml Tolbutamide & 200 ng/ml Labetalol at 1:3 ratio and mix well on shaker for 10 min then centrifuge at 4000 rpm for 15 min. A 100 ul aliquot of supernatant was mixed with 100 μL of ultra-pure and submitted for LC-MS/MS analysis.

Series [2] in a line: Liver Microsome stability (In Vitro Metabolism). It is filed as in vitro ADME. The following applies: for Remaining (T = NCF60 min): no cofactor 60 min. How it is done:
Working Compound solution: 10 uM in 50 mM potassium phosphate buffer with 9% MeOH and 1% DMSO
Microsome solution: working concentration 0.625 mg/ml
Stopping solution: Cold ACN with 200 ng/ml Tolbutamide and 200 ng/ml Labetalol (4° C.)
Procedure: In the well plates (T5, T10, T20, T30, T60, NCF60 (no cofactor 60)) 10 uL of the compound/control working solution was added (except T0 and matric blank) followed by microsome solution (80 uL) and the mixture was incubated at 37 C for about 10 mins. A solution of potassium phosphate (10 ul of 50 mM) was added to NCF60 well, incubated at 37 C and time counting started. After prewarming 10 ul of NADPH regenerating solution was added to each plate to start the reaction. At different time point 300 uL/well of stopping solution to terminate the reaction. The sampling plates were shaken for 10 mins and the centrifuged for 20 mins at 4000 rpm. The supernatant was half diluted with ultra pure water and the analyzed using LCMS.

Setting [3] is: Table 12, C16 amides of C2'epiAmB.
Setting [4] is: Tables 8 and 9, average over the 8 listed strains.

SMILES strings stand for the structures. ≈ marks a conversion by molar mass, not a printed value.

With `CC1C=CC=CC=CC=CC=CC=CC=CC(OC2OC(C)C(O)C(N)C2O)CC2OC(O)(CC(O)CC(O)C(O)CCC(O)CC(O)CC(=O)OC(C)C(C)C1O)CC(O)C2C(=O)NCCC#N` (stereo not shown) [BO], the “MIC C. tropicalis” value against C. tropicalis was determined as 500 µM (≈ 488 µg/mL). Moreover, in the series with A. fumigatus 1163, the “MIC A. fumigatus 1163” value was found to be 1500 µM (≈ 1460 µg/mL). Moreover, the “Average MIC” value in series [1] (setting [3]) worked out at 1.188 µM. Besides, the “Avg. MIC of AmB amide” value in series [1] is given as 0.42.
Turning to `CC1C=CC=CC=CC=CC=CC=CC=CC(OC2OC(C)C(O)C(N)C2O)CC2OC(O)(CC(O)CC(O)C(O)CCC(O)CC(O)CC(=O)OC(C)C(C)C1O)CC(O)C2C(=O)NC1CCC1` (stereo not shown) [AR4], in the series with C. albicans SN250, the “MIC C. albicans SN250” value was 500 µM (≈ 489 µg/mL). Moreover, the “MIC C. krusei” value in the series on C. krusei is 550 µM (≈ 537 µg/mL). Also, in the series with C. tropicalis, the “MIC C. tropicalis” value amounted to 500 µM (≈ 489 µg/mL). For the same molecule, the “MIC A. fumigatus 1163” value with A. fumigatus 1163 is 1000 µM (≈ 977 µg/mL). The “Average MIC” value in [1] (setting [4]) turned out to be 750 µM.
`CC1C=CC=CC=CC=CC=CC=CC=CC(OC2OC(C)C(O)C(N)C2O)CC2OC(O)(CC(O)CC(O)C(O)CCC(O)CC(O)CC(=O)OC(C)C(C)C1O)CC(O)C2C(=O)NC1CCCCCCCCC1` (stereo not shown) [AR-10]: the “MIC C. albicans SN250” value in the series with C. albicans SN250 stood at 1000 µM (≈ 1060 µg/mL). For the same molecule, the “MIC C. krusei” value in the series on C. krusei is 1000 µM (≈ 1060 µg/mL). Moreover, in the series on C. glabrata, the “MIC C. glabrata” value came to 2000 µM (≈ 2120 µg/mL). Moreover, the “Average MIC” value in [1] (setting [4]) was determined as 2250 µM.
Regarding `CC1C=CC=CC=CC=CC=CC=CC=CC(OC2OC(C)C(O)C(N)C2O)CC2OC(O)(CC(O)CC(O)C(O)CCC(O)CC(O)CC(=O)OC(C)C(C)C1O)CC(O)C2C(=O)NC1CCCC1` (stereo not shown) [AR5], the “MIC C. albicans SN250” value against C. albicans SN250 is 500 µM (≈ 496 µg/mL). In addition, the “MIC C. krusei” value in the series on C. krusei worked out at 500 µM (≈ 496 µg/mL). In addition, in the series with C. tropicalis, the “MIC C. tropicalis” value came out at 500 µM (≈ 496 µg/mL). Moreover, the “MIC A. fumigatus 1100” value against A. fumigatus 1100 amounted to 1500 µM (≈ 1490 µg/mL). The “Average MIC” value in series [1] (setting [4]) turned out to be 1063 µM.
For the molecule `CC1C=CC=CC=CC=CC=CC=CC=CC(OC2OC(C)C(O)C(N)C2O)CC2OC(O)(CC(O)CC(O)C(O)CCC(O)CC(O)CC(=O)OC(C)C(C)C1O)CC(O)C2C(=O)NC1COCC1O` (stereo not shown) [BR], in the series on C. tropicalis, the “MIC C. tropicalis” value was determined as 500 µM (≈ 505 µg/mL). The “Average MIC” value in series [1] (setting [3]) amounted to 1.688 µM; in series [1] (Table 13, C16 amides of C2’epiAmB) it was 1250 µM. Besides, the “Avg. MIC of AmB amide” value in series [1] amounted to 0.38.
In the case of `CC1C=CC=CC=CC=CC=CC=CC=CC(OC2OC(C)C(O)C(N)C2O)CC2OC(O)(CC(O)CC(O)C(O)CCC(O)CC(O)CC(=O)OC(C)C(C)C1O)CC(O)C2C(=O)NC1CCCCCC1` (stereo not shown) [AR7], the “MIC C. krusei” value against C. krusei was 1000 µM (≈ 1020 µg/mL). Besides, the “MIC C. glabrata” value with C. glabrata came to 2000 µM (≈ 2040 µg/mL). Besides, in [1] (setting [4]), the “Average MIC” value was found to be 1469 µM.
For the molecule `CNC(=O)C1C(O)CC2(O)CC(O)CC(O)C(O)CCC(O)CC(O)CC(=O)OC(C)C(C)C(O)C(C)C=CC=CC=CC=CC=CC=CC=CC(OC3OC(C)C(O)C(N)C3O)CC1O2` (stereo not shown) [AN], in “Plasma Stability” (Human Plasma), the “% Remaining at 120 min” value came out at 106% and the “Half Life” value was above 4.82 h. Further, in the series “Plasma Stability” (Rat Plasma), the “% Remaining at 120 min” value came out at 118% and the “Half Life” value was above 4.82 h. Also, in series [2] (Dog liver microsomes), the CL was below 9.6 µL/min/mg, the CLint is listed as below 14 mL/min/kg, the “Remaining (T = 60 min)” value is on record as 92.4% and the T1/2 was above 2.42 h. Moreover, the “Remaining (T = NCF60 min)” value in series [2] (Dog liver microsomes) was 113%. Moreover, in series [2] (Human liver microsomes), the CL is below 9.6 µL/min/mg, the CLint is on record as below 8.6 mL/min/kg, the “Remaining (T = 60 min)” value worked out at 104% and the T1/2 is above 2.42 h. Further, the “Remaining (T = NCF60 min)” value in series [2] (Human liver microsomes) came out at 127%. In [2] (Monkey liver microsomes), the CL is below 9.6 µL/min/mg, the CLint is recorded as below 13 mL/min/kg, the “Remaining (T = 60 min)” value was 139% and the T1/2 was above 2.42 h. Also, the “Remaining (T = NCF60 min)” value in [2] (Monkey liver microsomes) was found to be 135%. Besides, in [2] (Mouse liver microsomes), the CL is below 9.6 µL/min/mg, the CLint was below 38 mL/min/kg, the “Remaining (T = 60 min)” value came to 102% and the T1/2 is above 2.42 h. For the same molecule, the “Remaining (T = NCF60 min)” value in [2] (Mouse liver microsomes) was 131%. For the same molecule, in series [2] (Rat liver microsomes), the CL is below 9.6 µL/min/mg, the CLint is below 17 mL/min/kg, the “Remaining (T = 60 min)” value stood at 106% and the T1/2 is above 2.42 h. Further, the “Remaining (T = NCF60 min)” value in series [2] (Rat liver microsomes) amounted to 93%.
Take `COC(=O)C(Cc1c[nH]cn1)NC(=O)C1C(O)CC2(O)CC(O)CC(O)C(O)CCC(O)CC(O)CC(=O)OC(C)C(C)C(O)C(C)C=CC=CC=CC=CC=CC=CC=CC(OC3OC(C)C(O)C(N)C3O)CC1O2` (stereo not shown) [AL]: in the series “Plasma Stability” (Human Plasma), the “% Remaining at 120 min” value came to 107% and the “Half Life” value was above 4.82 h. Further, in the series “Plasma Stability” (Rat Plasma), the “% Remaining at 120 min” value worked out at 111% and the “Half Life” value is above 4.82 h. In [2] (Dog liver microsomes), the CL is below 9.6 µL/min/mg, the CLint is given as below 14 mL/min/kg, the “Remaining (T = 60 min)” value is listed as 101% and the T1/2 was above 2.42 h. Further, the “Remaining (T = NCF60 min)” value in [2] (Dog liver microsomes) is reported as 87.1%. In series [2] (Human liver microsomes), the CL was below 9.6 µL/min/mg, the CLint was below 8.6 mL/min/kg, the “Remaining (T = 60 min)” value is reported as 113% and the T1/2 is above 2.42 h. Besides, the “Remaining (T = NCF60 min)” value in series [2] (Human liver microsomes) is on record as 96.8%. In series [2] (Monkey liver microsomes), the CL was below 9.6 µL/min/mg, the CLint is given as below 14 mL/min/kg, the “Remaining (T = 60 min)” value is given as 107% and the T1/2 is above 2.42 h. Moreover, in [2] (Monkey liver microsomes), the “Remaining (T = NCF60 min)” value turned out to be 106%. Besides, in series [2] (Mouse liver microsomes), the CL was below 9.6 µL/min/mg, the CLint was below 38 mL/min/kg, the “Remaining (T = 60 min)” value is 127% and the T1/2 was above 2.42 h. In series [2] (Mouse liver microsomes), the “Remaining (T = NCF60 min)” value worked out at 139%. Moreover, in series [2] (Rat liver microsomes), the CL is below 9.6 µL/min/mg, the CLint is recorded as below 17 mL/min/kg, the “Remaining (T = 60 min)” value is recorded as 132% and the T1/2 is above 2.42 h. In addition, the “Remaining (T = NCF60 min)” value in series [2] (Rat liver microsomes) is listed as 75.4%.
In the case of `CC1C=CC=CC=CC=CC=CC=CC=CC(OC2OC(C)C(O)C(N)C2O)CC2OC(O)(CC(O)CC(O)C(O)CCC(O)CC(O)CC(=O)OC(C)C(C)C1O)CC(O)C2C(=O)NCCN` (stereo not shown) [AM], in the series “Plasma Stability” (Human Plasma), the “% Remaining at 120 min” value is given as 102% and the “Half Life” value was above 4.82 h. Further, in the series “Plasma Stability” (Rat Plasma), the “% Remaining at 120 min” value is 118% and the “Half Life” value was above 4.82 h. Also, in [2] (Dog liver microsomes), the CL is below 9.6 µL/min/mg, the CLint is recorded as below 14 mL/min/kg, the “Remaining (T = 60 min)” value was found to be 107% and the T1/2 was above 2.42 h. For the same molecule, the “Remaining (T = NCF60 min)” value in [2] (Dog liver microsomes) came to 109%. Also, in [2] (Human liver microsomes), the CL was below 9.6 µL/min/mg, the CLint is below 8.6 mL/min/kg, the “Remaining (T = 60 min)” value is 101% and the T1/2 is above 2.42 h. Besides, in series [2] (Human liver microsomes), the “Remaining (T = NCF60 min)” value came to 115%. In addition, in series [2] (Monkey liver microsomes), the CL was below 9.6 µL/min/mg, the CLint was below 13 mL/min/kg, the “Remaining (T = 60 min)” value was 113% and the T1/2 is above 2.42 h. The “Remaining (T = NCF60 min)” value in series [2] (Monkey liver microsomes) turned out to be 121%. In addition, in series [2] (Mouse liver microsomes), the CL is below 9.6 µL/min/mg, the CLint is on record as below 38 mL/min/kg, the “Remaining (T = 60 min)” value is reported as 109% and the T1/2 was above 2.42 h. Also, in series [2] (Mouse liver microsomes), the “Remaining (T = NCF60 min)” value is reported as 176%. In addition, in series [2] (Rat liver microsomes), the CL was below 9.6 µL/min/mg, the CLint was below 17 mL/min/kg, the “Remaining (T = 60 min)” value was determined as 113% and the T1/2 was above 2.42 h. In addition, the “Remaining (T = NCF60 min)” value in [2] (Rat liver microsomes) was 83.1%.
